Assays:
[1] = tested on: LDL receptor deficient (LDLR−/−) mice; assay: Serum triglyceride levels in LDLR−/− mouse model after 2 g/kg HPBCD; assay type: in vivo
Source text: LDL receptor deficient (LDLR^−/−) mice were divided into 6 Groups. Prior to the administration of 2 g/kg of HPBCD, Group 1 was fed with normal chow diet (NC) for 5 weeks and Group 2-Group 6 were fed with high-fat (42%), high-cholesterol (1.2%) Western diet (WD) for various durations up to 9 weeks. Experimental scheme and diet schedule is described in FIG. 1A. Mice of Group 1 were further categorized into 3 sub-Groups (e.g., Group 1.1, Group 1.2, and Group 1.3) according to the administration of HPBCD as shown in FIG. 1B. Blood samples were taken from the mouse models, after 5 weeks of feeding and at a certain period of time (e.g., 1 week, 2 weeks, 3 weeks, 4 weeks after 2 g/kg HPBCD treatment), for measurement of triglyceride levels in each model Group. […] (FIG. 2A).

volunteers [2] = assay: Triglyceride levels in volunteers after a single intravenous dose of HPBCD (FIG. 3A); assay type: in vivo, humans
Method: Twenty-nine volunteers were divided into five groups. Each group was administered an intravenous dose of 50 mg/kg, 250 mg/kg, 500 mg/kg, 1000 mg/kg or 1500 mg/kg of HPBCD as shown in FIG. 3A. Blood samples were taken immediately prior to injection to establish a baseline triglyceride concentration, and at 24 hours (D2) and 48 hours (D3) post injection for measurement of triglyceride levels. […] Overall, triglyceride levels of participants decreased, particularly evident in participants with higher baseline triglyceride concentrations.

volunteers [3] = assay: Separate placebo-controlled study: change in triglyceride levels from baseline in volunteers (FIG. 3B-3D); assay type: in vivo, humans; conditions: intravenous 500, 1000 or 1500 mg/kg
Method: In a separate study, volunteers were divided into four groups. Each group was administered an intravenous dose of placebo or an intravenous dose of 500 mg/kg, 1000 mg/kg or 1500 mg/kg of HPBCD as shown in FIG. 3B. Blood samples were taken immediately prior to injection to establish a baseline triglyceride concentration, and at 24 hours (left bar) and 48 hours (right bar) post injection. Triglyceride levels are presented as the median average percentage change from baseline. […] The data in FIG. 3B were divided into two groups for further analysis. Group 1 consisted of the portion of the cohort which had baseline triglyceride levels greater than 100 mg/dL. Group 2 had baseline triglyceride levels less than or equal to 100 mg/dL. The average percentage change of triglyceride levels from baseline of Group 1 and Group 2 is shown in FIG. 3C and FIG. 3D respectively. […] This is consistent with the marked reduction (˜30%) in triglyceride levels observed for the one participant in FIG. 3A with a baseline triglyceride level of approximately 425 mg/dL.

**Q.** With CC(O)COC[C@H]1O[C@@H]2O[C@H]3[C@H](O)[C@@H](O)[C@@H](O[C@H]4[C@H](O)[C@@H](O)[C@@H](O[C@H]5[C@H](O)[C@@H](O)[C@@H](O[C@H]6[C@H](O)[C@@H](O)[C@@H](O[C@H]7[C@H](O)[C@@H](O)[C@@H](O[C@H]8[C@H](O)[C@@H](O)[C@@H](O[C@H]1[C@H](O)[C@H]2O)O[C@@H]8COCC(C)O)O[C@@H]7COCC(C)O)O[C@@H]6COCC(C)O)O[C@@H]5COCC(C)O)O[C@@H]4COCC(C)O)O[C@@H]3COCC(C)O (stereo partly drawn) [HPBCD, 2-hydroxypropyl-beta-cyclodextrin] as the compound, how does the “triglyceride levels of WD-fed mice after the administration of HPBCD” value ([1]; Western diet (WD), blood sampled 1-4 weeks after treatment, FIG. 2A) read?
**A.** decreased over time

**Q.** What about the “triglyceride level of NC-fed mice after the administration of HPBCD” value ([1]; normal chow diet (NC), FIG. 2B) of the same compound?
**A.** decreased from 24 hours after the administration

**Q.** What about the “reduction in triglyceride levels” value (volunteers [2]; one participant in FIG. 3A with baseline triglyceride level of approximately 425 mg/dL) of the same compound?
**A.** ~30%

**Q.** And the “triglyceride levels following administration (safety)” value (volunteers [2]; volunteers, intravenous 50, 250, 500, 1000 or 1500 mg/kg, 24 h and 48 h post injection, any tested dose, FIG. 3A)?
**A.** did not significantly increase

**Q.** What about the “triglyceride levels of participants overall” value (volunteers [2]; volunteers, intravenous 50-1500 mg/kg, 24 h and 48 h post injection, particularly evident with higher baseline triglyceride) of the same compound?
**A.** decreased

**Q.** What about the “reduction in triglyceride levels, Group 1 (baseline >100 mg/dL) versus Group 2 (baseline ≤100 mg/dL)” value (volunteers [3]; 24 h and 48 h, FIG. 3C and 3D) of the same compound?
**A.** greater reduction in triglyceride levels was observed in participants in Group 1 than those in Group 2

**Q.** And the “triglyceride levels, median average percentage change from baseline” value (volunteers [3]; 24 h and 48 h post injection, any tested dose, FIG. 3B)?
**A.** did not increase

From patent US20240398849A1, “METHODS FOR THE TREATMENT OF […] WITH CYCLODEXTRINS” (BEREN THERAPEUTICS P.B.C., priority 2022, published 2024)
